Reference: PMC10761396, “Evaluation of new alternative methods for the identification of estrogenic, androgenic and steroidogenic effects: a comparative in vitro/in silico study” (Archives of Toxicology, 2023)
Entries after “also recorded” stand apart in the source; their conditions may differ. Read-outs that look alike come from different tables or passages of the source.

How the values were obtained:
AR [1] = target: T1, AR (Homo sapiens, UniProt P10275); experiment: (anti-)AR CALUX receptor transactivation assay; assay type: cell-based; design: expressed in transfected cells; host or cells: CALUX cells (U2-OS is named only for the cytotoxicity CALUX)
T1 sequence (P10275 1-920): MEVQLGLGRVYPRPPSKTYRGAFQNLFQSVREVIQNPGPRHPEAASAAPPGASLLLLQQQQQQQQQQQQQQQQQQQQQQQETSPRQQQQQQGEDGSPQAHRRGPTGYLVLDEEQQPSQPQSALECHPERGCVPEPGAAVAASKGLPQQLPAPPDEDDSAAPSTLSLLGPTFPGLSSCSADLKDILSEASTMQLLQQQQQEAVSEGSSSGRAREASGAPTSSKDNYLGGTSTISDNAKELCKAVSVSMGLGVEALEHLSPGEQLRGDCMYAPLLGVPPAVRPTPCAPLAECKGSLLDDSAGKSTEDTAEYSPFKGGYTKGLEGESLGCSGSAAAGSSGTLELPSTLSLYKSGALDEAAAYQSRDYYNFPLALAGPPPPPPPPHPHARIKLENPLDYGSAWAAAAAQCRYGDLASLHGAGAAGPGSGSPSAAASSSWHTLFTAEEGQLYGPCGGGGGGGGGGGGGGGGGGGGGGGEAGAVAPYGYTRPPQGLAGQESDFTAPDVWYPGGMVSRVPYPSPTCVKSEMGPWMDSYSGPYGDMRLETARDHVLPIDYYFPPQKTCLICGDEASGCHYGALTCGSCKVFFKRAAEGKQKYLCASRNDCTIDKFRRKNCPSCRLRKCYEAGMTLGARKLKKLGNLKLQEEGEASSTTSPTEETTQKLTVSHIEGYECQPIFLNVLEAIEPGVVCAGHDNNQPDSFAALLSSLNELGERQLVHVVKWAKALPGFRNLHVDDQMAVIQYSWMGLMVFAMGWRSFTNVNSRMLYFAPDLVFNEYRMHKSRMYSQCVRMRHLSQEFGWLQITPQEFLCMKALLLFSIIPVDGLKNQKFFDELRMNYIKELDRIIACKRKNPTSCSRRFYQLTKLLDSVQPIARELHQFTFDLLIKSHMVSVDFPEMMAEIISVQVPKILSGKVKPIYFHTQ
Protocol: The human CALUX® assays were used to measure the impact of test compounds on estrogen and androgen pathways. […] Chemicals can activate (or inactivate, in the case of an antagonistic activity) a ligand-specific pathway by binding to the receptor (ER, AR), after which the receptor-ligand complex binds to specific DNA REs […], resulting in increased (or decreased) cellular expression of a marker protein (e.g., luciferase).
Chemicals were dissolved and diluted in DMSO. […] The cytotoxicity of each test chemical was assessed using the U2-OS based cytotoxicity CALUX bioassay. Concentrations causing >20% reduction of luminescence were considered cytotoxic. […] Luciferase production was quantified by measuring luminescence following addition of luciferin. For antagonist assays, a fixed concentration of receptor agonist was co-incubated with a range of concentrations of the test chemical. […] For the AR assays, dihydrotestosterone was the positive control for agonistic effects and flutamide was the positive control for antagonist effects.
Each test chemical was tested in triplicates in two independent experiments.

aromatase = tested on: aromatase; design: method as in US EPA ToxCast; conditions: ref US EPA ToxCast, cited from earlier work; for ToxCast (assays Comments), efficacy: borderline: less than 50% efficacy
AR [2] = experiment: ToxCast AR assays and final ToxCast call; conditions: for Final "true" call (ToxCast): AR effects, from active assays, cytotoxicity and pathway model; for ToxCast result: AR overall call from Supplementary Table 4; for Final "true" call (ToxCast) AR: from ToxCast assays and ToxCast Pathway Model
Excerpt: (§1) A rich source of data can be found in the EPA's ToxCast database (US EPA). This contains ED data for ~ 1800 chemicals in more than 700 high-throughput assay endpoints that cover a range of high-level cell responses. The US EPA is running an Endocrine Disruption Screening Program (EDSP), with the aim of prioritising chemicals using high-throughput screening methods and computational toxicology approaches to evaluate thousands of chemicals for ED activities. The OECD framework for ED assessment (OECD [2018]) requires animal testing at higher levels, where relevant in vitro alternatives are missing e.g. for developmental, reproductive, neurological and immune effects. However, such follow-up testing is not possible for the cosmetics industry especially in the EU due to the complete animal testing ban which came into force in March 2013 (EU [2009]). Even for other industries, animal models are not suitable for assessing ED effects due to issues relating to ethics, capacity, speed and relevance (Patisaul et al. [2018]). Therefore, chemicals which cannot be evaluated using in vivo method must be assessed using alternative methods e.g. in silico and in vitro methods listed in Levels 1 and 2 of the framework described in the OECD 150 test guideline (OECD [2018]).
(§2) The performance of different in silico models for ED effects tends to be evaluated on single model for a single effect, such as ER or AR binding, agonism or antagonism (normally by the developer), or a limited number of models using multiple chemicals (Weyrich et al. [2022]). Multi-organisation collaborations have also evaluated multiple models for a specific effect e.g. ER (Mansouri et al. [2016]) and AR (Mansouri et al. [2020]) effects. Therefore, we have conducted a side-by-side comparison of multiple different in silico models covering three pathways in ED, namely ER, AR and aromatase inhibition and compared these with ToxCast-derived final calls, as well as with results from in vitro assays. The efficiency of the in silico models was evaluated as a metric for the ability of the in silico model to generate concrete predictions. […] In vivo data were available for some but not all chemicals; therefore, an evaluation of the performance of the methods was made by comparing the derived overall calls from in silico models with those from the ToxCast database. The final call for each chemical evaluated in the ToxCast assays was made by considering the active-flagged assays and the corresponding cytotoxicity levels, the ToxCast Pathway Model (Browne et al. [2015]) and the CERAPP Potency Level (Mansouri et al. [2016]) for ER effects and the ToxCast Pathway Model (Kleinstreuer et al. [2017]) for AR effects (see Online Resource 1 Supplementary Tables 2, 4 and 6 for the outcome of the ER, AR and aromatase ToxCast assays, additional literature and final calls for each chemical and target).

ER [3] = experiment: ToxCast ER assays and final ToxCast call; conditions: for Final "true" call (ToxCast) ER: from active ToxCast assays, cytotoxicity, ToxCast Pathway Model and CERAPP Potency Level; for ToxCast result (ER): overall call from ToxCast data (Supplementary Table 2)
Excerpt: as §1, §2

ER [4] = tested on: ER; design: method as in Mansouri et al. 2016; conditions: ref Mansouri et al. 2016; cited from earlier work
AR [5] = tested on: AR; design: method as in ToxCast; conditions: ref ToxCast, cited from earlier work; for ToxCast conclusion from assays result: AR sheet; for ToxCast 1: (Active assays), number of positive assays / assays run: ToxCast AR assays
ER [6] = tested on: ER; design: method as in US EPA ToxCast; conditions: ref US EPA ToxCast, cited from earlier work; for ToxCast 1: (Active assays), ER assay listed as active: each listed assay name = active-flagged assay

| Compound | outcome in the AR transactivation assay (AR [1]) | ToxCast (Aromatase assays), positive/total (aromatase) | Final "true" call (ToxCast) (AR [2]) | ToxCast result (AR [2]) | Final "true" call (ToxCast) AR (AR [2]) | Final "true" call (ToxCast) ER (ER [3]) | CERAPP Potency Level (ER [4]) | ToxCast conclusion from assays result (AR [5]) | ToxCast 1: (Active assays), number of positive assays / assays run (AR [5]) | ToxCast 1: (Active assays), positive/total ER assays (ER [6]) | ToxCast conclusion from assays result (ER [6]) | ToxCast result (ER) (ER [3]) | also measured |
| --- | --- | --- | --- | --- | --- | --- | --- | --- | --- | --- | --- | --- | --- |
| CCCCN(CCCC)c1ccc(C(=O)c2ccccc2C(=O)O)c(O)c1 [DBABA, 2-[4-(dibutylamino)-2-hydroxybenzoyl]benzoic acid] | negative | 0/2 positive | Negative | Negative | Negative | Inconclusive | Negative | Endocrine Disruption Potential.Significant Estrogen Receptor activity seen | 2/8 positive | 2/6 positive | Endocrine Disruption Potential.Significant Estrogen Receptor activity seen |  | ToxCast 1: (assays Comments) (AR [5]; TOX21_AR_BLA_Antagonist_ratio): Only highest concentration above the baseline; efficacy (assays Comments) (AR [5]; TOX21_AR_BLA_Antagonist_viability): Boarderline: less than 50% efficacy (26.5%); ToxCast 1: (Active assays), ER assay listed as active (ER [6]; assay TOX21_ERa_BLA_Antagonist_ratio): TOX21_ERa_BLA_Antagonist_ratio; ToxCast 1: (Active assays), ER assay listed as active (ER [6]; assay TOX21_ERa_BLA_Antagonist_viability): TOX21_ERa_BLA_Antagonist_viability |
| O=c1c(-c2ccc(O)cc2)coc2cc(O)ccc12 [Daidzein, daidzein] | negative | 0/2 positive | Inconclusive |  |  | Positive for agonism and antagonism | Weak agonist & strong antagonist | Endocrine Disruption Potential.Significant Estrogen Receptor activity seen | 2/15 positive |  | Endocrine Disruption Potential.Significant Estrogen Receptor activity seen | ER agonist and antagonist | efficacy (assays Comments) (AR [5]; TOX21_AR_LUC_MDAKB2_Agonist): Boarderline: less than 50% efficacy (20.8%) |
| C[C@]12CCC(=O)C[C@@H]1CC[C@@H]1[C@@H]2CC[C@@]2(C)[C@H]1CC[C@]2(C)O [Mestanolone, mestanolone, reference compound] |  | 0/2 positive | Positive for agonism | AR agonist only | Positive for agonism | Positive for agonism and antagonism | Weak agonist & strong antagonist | Endocrine Disruption Potential.Significant Estrogen Receptor activity seen | 2/6 positive | 2/6 positive | Endocrine Disruption Potential.Significant Estrogen Receptor activity seen | ER agonist and antagonist | ToxCast 1: (assays Comments) (AR [5]; TOX21_AR_BLA_Agonist_ratio): High active; ToxCast 1: (assays Comments) (AR [5]; TOX21_AR_LUC_MDAKB2_Agonist): High active; ToxCast 1: (Comments) (ER [6]; for the assay named in the same line): High active |
| CC(C)(C)CC(C)(C)c1ccc(O)cc1 [4-TO, 4-tert-octylphenol] |  | 2/2 positive | Positive for antagonism | AR antagonist only | Positive for antagonism | Positive for agonism | Weak agonist & strong antagonist | Endocrine Disruption Potential.Significant Estrogen Receptor activity seen |  | 20/21 positive | Endocrine Disruption Potential.Significant Estrogen Receptor activity seen | ER agonist only | LEC, AR antagonism (AR [1]): 0.44 µM; ToxCast (assays Comments), efficacy (aromatase): 31.35%; ToxCast (assays Comments), efficacy (aromatase; listed as 4-tert-Octylphenol): Boarderline: less than 50% efficacy (31.35%); ToxCast (Aromatase assays), assay listed as active (aromatase; each listed assay name = active assay): TOX21_Aromatase_Inhibition; also recorded: TOX21_Aromatase_Inhibition_viability |
